Data published in PubChem BioAssay AID248 (DTP/NCI, 2004).
“And” between values parts separate entries of the source, which are not always exact repeats. Equal entries are not always repeated. Toxic doses and inconclusive results are not listed. No stated cut-off is given here; in the data, active means T/C of 150% or more; inactive means T/C below 125%.

Tested on: L1210 leukemia ip in BDF1 mice, survival T/C
Assay: NCI In Vivo Anticancer Drug Screen. Data for tumor model L1210 Leukemia (intraperitoneal) in B6D2F1 (BDF1) mice
Conditions: endpoint: mean survival time, higher = longer survival
Procedure, shortened: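 Survival endpoint. Drug-treated group vs vehicle group, expressed as T divided by C. Tumor passaged by transplantation.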

[1] = dose: 100.0 mg/kg/injection, schedule: Q01DX009 (ip), vehicle: saline with Tween-80
[2] = dose: 100.0 mg/kg/injection, schedule: Q04DX003 (ip), vehicle: saline with Tween-80
[3] = dose: 200.0 mg/kg/injection, schedule: Q01DX009 (ip), vehicle: saline with Tween-80
[4] = dose: 200.0 mg/kg/injection, schedule: Q04DX003 (ip), vehicle: saline with Tween-80
[5] = dose: 400.0 mg/kg/injection, schedule: Q01DX009 (ip), vehicle: saline with Tween-80
[6] = dose: 100.0 mg/kg/injection, schedule: Q04DX003 (ip), vehicle: Klucel (hydroxypropylcellulose) (HPC)
[7] = dose: 200.0 mg/kg/injection, schedule: Q04DX003 (ip), vehicle: Klucel (hydroxypropylcellulose) (HPC)
[8] = dose: 400.0 mg/kg/injection, schedule: Q04DX003 (ip), vehicle: Klucel (hydroxypropylcellulose) (HPC)
[9] = dose: 100.0 mg/kg/injection, schedule: Q04DX003 (ip), vehicle: saline
[10] = dose: 200.0 mg/kg/injection, schedule: Q04DX003 (ip), vehicle: saline

Measured: T/C

C=CCSc1nc(N)nc2c1nc(SCC=C)n2C1OC(CO)C(O)C1O (stereo not given)
inactive: dose: 50.0 mg/kg/injection, schedule: Q01DX005 (ip), vehicle: saline 93 % of control | dose: 100.0 mg/kg/injection, schedule: Q01DX005 (ip), vehicle: saline 102 % of control | dose: 200.0 mg/kg/injection, schedule: Q01DX005 (ip), vehicle: saline 100 % of control

C=CCc1ccc(OC(=O)Nc2cc(Cl)ccc2C)c(OC)c1
inactive: dose: 100.0 mg/kg/injection, schedule: Q01DX001 (ip), vehicle: saline with Tween-80 93 % of control | [1] 106 % of control and 87 % of control | dose: 100.0 mg/kg/injection, schedule: Q04DX002 (ip), vehicle: saline with Tween-80 101 % of control and 92 % of control | [2] 103 % of control | dose: 200.0 mg/kg/injection, schedule: Q01DX001 (ip), vehicle: saline with Tween-80 97 % of control | [3] 101 % of control and 87 % of control | dose: 200.0 mg/kg/injection, schedule: Q04DX002 (ip), vehicle: saline with Tween-80 95 % of control and 97 % of control | [4] 101 % of control | dose: 400.0 mg/kg/injection, schedule: Q01DX001 (ip), vehicle: saline with Tween-80 92 % of control | [5] 101 % of control and 102 % of control | dose: 400.0 mg/kg/injection, schedule: Q04DX002 (ip), vehicle: saline with Tween-80 95 % of control and 98 % of control | dose: 400.0 mg/kg/injection, schedule: Q04DX003 (ip), vehicle: saline with Tween-80 101 % of control

O=C(/C=C/c1cccc([N+](=O)[O-])c1)Nc1cccc(S(=O)(=O)F)c1
inactive: [1] 89 % of control | [3] 96 % of control | [5] 97 % of control

CCC(Cl)COP(=O)(OCC(Cl)CC)OC(CC)P(=O)(OCC(Cl)CC)OCC(Cl)CC (stereo not given)
inactive: [6] 93 % of control | [7] 93 % of control | [8] 95 % of control

N=C(N)c1ccc(C(=N)N)cc1
inactive: dose: 25.0 mg/kg/injection, schedule: Q01DX009 (ip), vehicle: water 95 % of control | dose: 50.0 mg/kg/injection, schedule: Q01DX009 (ip), vehicle: water 95 % of control and 99 % of control | dose: 100.0 mg/kg/injection, schedule: Q01DX009 (ip), vehicle: water 97 % of control and 103 % of control

CC(=N)Oc1ccccc1
inactive: dose: 75.0 mg/kg/injection, schedule: Q01DX001 (ip), vehicle: Klucel (hydroxypropylcellulose) (HPC) 101 % of control | dose: 150.0 mg/kg/injection, schedule: Q01DX001 (ip), vehicle: Klucel (hydroxypropylcellulose) (HPC) 106 % of control | dose: 300.0 mg/kg/injection, schedule: Q01DX001 (ip), vehicle: Klucel (hydroxypropylcellulose) (HPC) 102 % of control

CCN(CC)CCOC(=O)c1cccc2[nH]ccc12
inactive: [9] 104 % of control | [10] 109 % of control

CC(C)N(c1ccc(C(=NO)c2ccc(N(C(C)C)C(C)C)cc2)cc1)C(C)C
inactive: [6] 90 % of control | [7] 88 % of control | [8] 92 % of control

CCN(CC)CCO[C@H]1CC[C@@]2(C)C(=CC[C@@H]3[C@@H]2CC[C@]2(C)C(=O)CC[C@@H]32)C1
inactive: dose: 50.0 mg/kg/injection, schedule: Q01DX001 (sc), vehicle: steriod suspending solution 101 % of control | dose: 100.0 mg/kg/injection, schedule: Q01DX001 (sc), vehicle: steriod suspending solution 90 % of control

COc1cc(Cl)ccc1C
inactive: dose: 50.0 mg/kg/injection, schedule: Q01DX009 (ip), vehicle: saline with Tween-80 98 % of control | [1] 93 % of control | [2] 93 % of control | [3] 90 % of control | [4] 89 % of control

CC12CCCC([N+](=O)[O-])(C1)NC(=O)C2C#N (stereo not given)
inactive: dose: 100.0 mg/kg/injection, schedule: Q01DX001 (ip), vehicle: saline 105 % of control | dose: 200.0 mg/kg/injection, schedule: Q01DX001 (ip), vehicle: saline 106 % of control | dose: 400.0 mg/kg/injection, schedule: Q01DX001 (ip), vehicle: saline 101 % of control

Nc1ccc(Cc2cc(=O)[nH]c(=O)[nH]2)cc1[N+](=O)[O-]
inactive: dose: 25.0 mg/kg/injection, schedule: Q01DX001 (ip), vehicle: Klucel (hydroxypropylcellulose) (HPC) 98 % of control | dose: 50.0 mg/kg/injection, schedule: Q01DX001 (ip), vehicle: Klucel (hydroxypropylcellulose) (HPC) 107 % of control | dose: 100.0 mg/kg/injection, schedule: Q01DX001 (ip), vehicle: Klucel (hydroxypropylcellulose) (HPC) 88 % of control | dose: 200.0 mg/kg/injection, schedule: Q01DX001 (ip), vehicle: Klucel (hydroxypropylcellulose) (HPC) 88 % of control

NCCCOc1ccc([N+](=O)[O-])cc1Cl
inactive: dose: 50.0 mg/kg/injection, schedule: Q01DX009 (ip), vehicle: saline 106 % of control | dose: 75.0 mg/kg/injection, schedule: Q01DX001 (ip), vehicle: saline 98 % of control | dose: 100.0 mg/kg/injection, schedule: Q01DX009 (ip), vehicle: saline 110 % of control | [9] 111 % of control | dose: 150.0 mg/kg/injection, schedule: Q01DX001 (ip), vehicle: saline 98 % of control | dose: 200.0 mg/kg/injection, schedule: Q01DX009 (ip), vehicle: saline 101 % of control | [10] 101 % of control

O=C(O)c1ccccc1/C=C1/Nc2ccccc2C1=O
inactive: dose: 10.0 mg/kg/injection, schedule: Q01DX001 (ip), vehicle: acetone 102 % of control | dose: 20.0 mg/kg/injection, schedule: Q01DX001 (ip), vehicle: acetone 94 % of control
